In publication PMC12410356 (International Journal for Parasitology: Drugs and Drug …, 2025):
Values joined by “and” are separate entries in the source; they are usually repeats but may differ in a detail not shown here. Equal entries are not always repeated.

Columns and labels:
[1] = test system: E. multilocularis metacestode vesicles; assay: Metacestode vesicle viability assay (ATP, CellTiter-Glo); assay type: cell-based, Echinococcus multilocularis; conditions: 10 μM, 12 days
Description: Viability was assessed after 12 days using the same metacestode vesicles as for the PGI release assay. Triton X-100 was added to each well to a final concentration of 0.1 %. Subsequently the metacestode vesicles were broken mechanically and 50 μL of the supernatant was mixed with 50 μL of CellTiter-Glo® buffer (Promega, Dübendorf, Switzerland). Measurements were performed on a HIDEX Sense microplate reader.

[2] = test system: E. multilocularis metacestode vesicles; assay: Phosphoglucose isomerase (PGI) release assay (damage-marker release) on metacestode vesicles; assay type: cell-based, Echinococcus multilocularis; conditions: 10 μM; for PGI d5 (relative PGI release): 5 days; for PGI d12 (relative PGI release): 12 days
[3] = overview screen, singlets, relative to DMSO control
[4] = overview screen, singlets, relative to 0.1 % Triton X-100, DMSO subtracted
[5] = confirmation screen, triplicates, mean

| Compound | Viability d12 (relative viability) [1, 3] [%] | PGI d5 (relative PGI release) [2, 4] | PGI d12 (relative PGI release) [2, 4] [%] | Viability d12 (relative viability) [1, 5] [%] | PGI d5 (relative PGI release) [2, 5] [%] | PGI d12 (relative PGI release) [2, 5] [%] |
| --- | --- | --- | --- | --- | --- | --- |
| c1cc(CN2CCCNCCNCCCNCC2)ccc1CN1CCCNCCNCCCNCC1 [MMV1580502] | 124.773 | -0.2909% | 2.621 |  |  |  |
| CC(=O)N1c2ccccc2NC2=C(C(=O)CC(C)(C)C2)C1c1ccc(OCc2ccccc2)cc1 (stereo not drawn) [MMV1580503] | 72.2027 | 1.18% | -18.9728 |  |  |  |
| Oc1ccc(NCc2ccccc2OCc2ccccc2)cc1 [MMV1580504] | 79.6345 | -1.084% | -20.6703 |  |  |  |
| O=C(Nc1ccc(N2CCN(C(=O)c3ccccc3)CC2)cc1)c1ccc2c(c1)OCO2 [MMV1580505] | 160.891 | -0.142% | -0.2928 |  |  |  |
| C[C@H](NC(=O)C(=O)Nc1ccccc1C(C)(C)C)C(=O)N[C@@H](CC(=O)O)C(=O)COc1c(F)c(F)cc(F)c1F [MMV1580794] | 57.1149 | -0.7921% | -19.0747 |  |  |  |
| CC[C@@]1(O)C(=O)OCc2c1cc1n(c2=O)Cc2cc3c([N+](=O)[O-])cccc3nc2-1 [MMV1580796] | 120.917 | 0.7883% | -0.447 |  |  |  |
| OCCC#Cc1nc(-c2ccc(F)cc2)c(-c2ccncc2)n1CCCc1ccccc1 [MMV1580797] | 270.956 | 0.809% | -17.1938 |  |  |  |
| Cc1[nH]c2ccccc2c1CC(=O)N[C@@H](Cc1ccccc1)C(=O)N(C)c1ccccc1 [MMV1580798] | 204.25 | 0.141% | -4.531 |  |  |  |
| COc1ccc(COc2cc3oc(=O)c4cc(C(C)O)ccc4c3cc2OC)cc1 (stereo not drawn) [MMV1580799] | 164.074 | -0.002121% | -19.4753 |  |  |  |
| N#Cc1cc([N+](=O)[O-])ccc1Oc1ccccc1Cl [MMV1580800] | 90.6917 | 1.0953% | -9.284 |  |  |  |
| Cc1nc2ccc(Cl)cc2c(-c2ccccc2)c1CC(=O)O [MMV1580801] | 42.503 | 6.482% | 83.9153 |  |  |  |
| Nc1nc(NC2Cc3ccc(F)cc3C2)nc(N2CCCCC2)n1 (stereo not drawn) [MMV1580839] | 110.365 | -3.67% | -6.152 |  |  |  |
| O=C(Nc1ccc(Cl)c(C(F)(F)F)c1)C(CCCl)C(=O)Nc1ccc(Cl)c(C(F)(F)F)c1 [MMV1580840] | 11.8566 | 14.7528% | 31.1069 | 81.80 | -0.17 | 0.36 |
| O=S(=O)(NCB(O)O)c1cc2c(Cl)ccc(Cl)c2s1 [MMV1580841] | 81.7436 | -1.0927% | -26.0917 |  |  |  |
| Clc1cc2nc(C3CCNCC3)n(Cc3ccc(CNCCc4c[nH]cn4)cc3)c2cc1Cl [MMV1580842] | 102.952 | -1.296% | -12.8721 |  |  |  |
| C[Si]1(C)CCN(Cc2cc(-c3ccc(Cl)cc3)n(-c3ccc(Cl)cc3)n2)CC1 [MMV1580843] | 93.6293 | -0.6444% | -1.571 |  |  |  |
| CCc1nc(N)nc(N)c1C#CC(C)c1cc(OC)cc(-c2ccncc2)c1 (stereo not drawn) [MMV1580844] | 16.6994 | -2.169% | 33.6502 | 84.60 | -0.46 | 0.83 |
| CC(=O)N[C@H](C)C(=O)N[C@H](Cc1ccccc1)C(=O)O [MMV1580845] | 90.1704 | 0.2541% | -2.372 |  |  |  |

| Compound | Viability d12 (relative viability) [1, 3] [%] | PGI d5 (relative PGI release) [2, 4] | PGI d12 (relative PGI release) [2, 4] [%] | Viability d12 (relative viability) [1, 5] [%] | PGI d5 (relative PGI release) [2, 5] [%] | PGI d12 (relative PGI release) [2, 5] [%] |
| --- | --- | --- | --- | --- | --- | --- |
| COc1ccc(SC(=O)N[C@H](CCC(=O)O)C(=O)O)cc1 [MMV1580846] | 126.077 | -0.9041% | -2.09 |  |  |  |
| CCCCCc1ccc(C(=O)NCCn2cc(CCCCCc3c[nH]c(N)n3)nn2)cc1.Cl [MMV1580847] | 106.136 | 2.795% | 5.023 |  |  |  |
| NC(=O)c1cnc2ccc(S(=O)(=O)c3ccccc3)cc2c1Nc1ccc(O)cc1 [MMV1580848] | 51.7682 | -0.9531% | 29.1599 |  |  |  |
| C=CCc1cc(Cc2cnc(N)nc2N)cc(OC)c1O [MMV1580849] | 47.2094 | 24.5% and 24.5063% | -6.332 |  |  |  |
| Fc1ccc(-n2cc(Cn3c(-c4cccc(F)c4)nc4ccccc43)nn2)cc1 [MMV1580850] | 34.9853 | -2.0582% | -24.0097 |  |  |  |
| CCCCCOc1ccc(/C=C2\Oc3c(ccc(O)c3O)C2=O)c(O)c1 [MMV1580851] | 137.102 | 1.174% | -13.3457 |  |  |  |
| CCCCc1ccc(-c2cc(C(=O)O)cc(-c3ccc(Cl)cc3)n2)cc1 [MMV1580852] | 95.9921 | -0.3014% | -1.795 |  |  |  |
| O=C(Nc1cccc(C2=NCCN2)c1)c1ccc(-c2ccc(C(=O)Nc3cccc(C4=NCCN4)c3)cc2)cc1 [MMV1580853] | 3.841 | 0.237% | 89.997 | 134.53 | -0.08 | 7.37 |
| CCc1cc(O)c(Oc2cccnc2N)cc1F [MMV1580854] | 45.6729 | -1.596% | -13.7258 |  |  |  |
| O=C(O)c1sccc1S(=O)(=O)n1ccc2cc(Br)ccc21 [MMV1580855] | 69.7674 | 0.195% | 35.1913 |  |  |  |
| Cc1ccccc1NC(=O)Nc1cccc([N+](=O)[O-])c1 [MMV1581029] | 89.4166 | 1.329% | -16.6439 |  |  |  |
| CN(C(=O)C1(c2ccc(Cl)cc2)CCC1)c1ccccc1 [MMV1581030] | 114.111 | 0.6829% | -0.7665 |  |  |  |
| FC(F)(F)Oc1ccc(Nc2ccc3cccc(Cl)c3n2)cc1 [MMV1581032] | 85.6723 | -0.01272% | 18.8065 |  |  |  |
| N[C@H](CCC(=O)N[C@@H](Cc1c[nH]c2ccccc12)C(=O)O)C(=O)O [MMV1581033] | 121.646 | 0.0006202% | -0.6563 |  |  |  |
| Cc1c(F)cccc1NC(=O)Nc1ccc(Cl)c(S(=O)(=O)[C@H]2CCCNC2)c1O [MMV1581034] | 88.9358 | 1.533% | -0.4746 |  |  |  |
| NC(=O)c1ccc(I)c([N+](=O)[O-])c1 [MMV1581035] | 321.911 | 1.539% | -0.2873 |  |  |  |
| COc1ccc(C[C@@H](C)[C@@H](C)Cc2ccc(OC)c(OC)c2)cc1OC [MMV1581036] | 132.486 | 0.565% | 2.335 |  |  |  |
